Data set [1] concerns the target Transporter, Norepinephrine (NET) (Homo sapiens, UniProt P23975). The experiment in a line: Eurofins radioligand binding.
Data set [2] relates to Imidazoline I2, Central. The experiment in a line: Eurofins radioligand binding. To be noted: Rat.
Data set [3] concerns the target Dopamine D4.2 (Homo sapiens, UniProt P21917, DEL265-296). The experiment in a line: Eurofins radioligand binding.
Data set [4] in a line: IV/PO pharmacokinetics (dog). The data set is classed as in vivo. As to conditions: Dog (beagle).
Data set [5] is described as follows: plasma protein binding, equilibrium dialysis (cyno). The data set is classed as in vitro ADME. To be noted: cynomolgus monkey, pH 7.4, cyno (c), read-out: fu,plasma. The method, then:
Plasma protein binding and Brain homogenate binding: Determination of fraction unbound (f u) in plasma was conducted in vitro via equilibrium dialysis using HTDialysis (HTD) membrane plates. The top half of the plate was filled with 100 uL of Dubelco’s Phosphate Buffered Saline, pH 7.4 (DPBS). Compounds were diluted into plasma from each species (5 µM final concentration), which was aliquoted in triplicate to the ‘bottom half’ of the prepared HTD plate wells. The HTD plate was sealed and incubated for 6 hours at 37 °C. Following incubation, each well (both top and bottom halves) were transferred (20 µL) to the corresponding wells of a 96-shallow-well (V-bottom) plate. […]
The unbound fraction (f u) was calculated following the equation below, and mean values for each species were calculated from 3 replicates.
A similar approach was used to determine the degree of brain homogenate binding, which employed the same methodology and procedure with the following modifications: 1) a final compound concentration of 1 μM was used, 2) naïve rat brains were homogenized in DPBS (1:3 composition of brain: DPBS, w/w) using a Mini-Bead Beater™ machine in order to obtain brain homogenate, which was then treated in the same manner as the plasma samples in the previously described plasma protein binding assay. Fraction unbound for both plasma and brain samples was determined using Equation 4. […]

Data set [6] has as its system C57Bl/6 mice. Briefly: phenotypic seizure liability assay (Racine scale). Format: in vivo, mouse. The method, then:
min, with an isocratic hold for 0.5 min, before transitioning to 10% B over 0.05 min. The column was re-equilibrated (1 min) before the next sample injection. The total run time was 2.55 min, and the HPLC flow rate was 0.5 ml/min. The source temperature was set at 500 °C, and mass spectral analyses were performed using a Turbo-Ion spray source in positive ionization mode (5.0-kV spray voltage) and using multiple-reaction monitoring of transitions specific for the analytes. All data were analyzed using AB Sciex Analyst 1.5.1 software.
Brain plasma concentration ratio (Kp) was calculated by dividing brain concentration by plasma concentration for each animal. Unbound brain to unbound plasma concentration ratio (Kp,uu) is calculated using the following formula: Kp,uu = (Brain ng/g x brain fu)/(plasma ng/ml x plasma fu).
Pharmacokinetic profiles in rats following oral single escalating doses Single escalating oral dosing in Sprague-Dawley rats was performed at Frontage Laboratories according to their non-GLP Standard Operating Procedure and IACUC protocols. In short, compounds were formulated in 10% Tween 80 in water and dosed at 10 mg/kg. At different times, arterial blood was collected from a femoral artery catheter, and compound concentration was determined in plasma by LC-MS/MS following their non-GLP protocol. PK parameters were determined using Phoenix WinNonlin software (version 6.3). […]
Blood-brain barrier penetration was determined using MDR1-MDCK cell monolayers by Absorption Systems, following their protocol. […] Compounds concentration on either side of the monolayer was determined by LC-MS/MS and apparent permeability and efflux ratio were determined as described in Wang, Q. et al.1 […]
To evaluate induction of behavioral manifestation of seizure activity, C57Bl/6 mice received administration of vehicle or 100 mg/kg M1 PAM 5. […] Animals were monitored continuously and scored for behavioral manifestations of seizure activity at 5, 15, 30 min, and 1 h. Behavioral manifestations of seizures were scored using a modified Racine scoring system. […]

The target of data set [7] is Prostanoid EP4 (Homo sapiens, UniProt P35408). The experiment in a line: Eurofins radioligand binding.
Sequence of Prostanoid EP4 (P35408 whole entry): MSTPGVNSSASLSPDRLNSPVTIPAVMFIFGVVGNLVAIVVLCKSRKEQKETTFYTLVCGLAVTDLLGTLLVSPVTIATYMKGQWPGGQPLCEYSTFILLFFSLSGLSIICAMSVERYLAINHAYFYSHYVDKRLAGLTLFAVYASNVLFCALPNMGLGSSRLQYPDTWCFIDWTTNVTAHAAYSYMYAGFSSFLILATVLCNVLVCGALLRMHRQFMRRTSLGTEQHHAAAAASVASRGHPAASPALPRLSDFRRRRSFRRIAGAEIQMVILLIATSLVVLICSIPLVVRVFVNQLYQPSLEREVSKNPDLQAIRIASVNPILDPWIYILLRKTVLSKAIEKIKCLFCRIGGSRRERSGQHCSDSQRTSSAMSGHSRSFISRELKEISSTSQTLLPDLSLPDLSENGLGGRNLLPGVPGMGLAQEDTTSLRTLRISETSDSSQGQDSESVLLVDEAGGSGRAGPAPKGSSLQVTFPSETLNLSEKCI
Data set [8] addresses Sigma σ1 (Homo sapiens, UniProt Q99720). The experiment in a line: Eurofins radioligand binding.
The target in data set [9] is Glucocorticoid (Homo sapiens, UniProt P04150). Briefly: Eurofins radioligand binding.
Sequence of Glucocorticoid (P04150 whole entry): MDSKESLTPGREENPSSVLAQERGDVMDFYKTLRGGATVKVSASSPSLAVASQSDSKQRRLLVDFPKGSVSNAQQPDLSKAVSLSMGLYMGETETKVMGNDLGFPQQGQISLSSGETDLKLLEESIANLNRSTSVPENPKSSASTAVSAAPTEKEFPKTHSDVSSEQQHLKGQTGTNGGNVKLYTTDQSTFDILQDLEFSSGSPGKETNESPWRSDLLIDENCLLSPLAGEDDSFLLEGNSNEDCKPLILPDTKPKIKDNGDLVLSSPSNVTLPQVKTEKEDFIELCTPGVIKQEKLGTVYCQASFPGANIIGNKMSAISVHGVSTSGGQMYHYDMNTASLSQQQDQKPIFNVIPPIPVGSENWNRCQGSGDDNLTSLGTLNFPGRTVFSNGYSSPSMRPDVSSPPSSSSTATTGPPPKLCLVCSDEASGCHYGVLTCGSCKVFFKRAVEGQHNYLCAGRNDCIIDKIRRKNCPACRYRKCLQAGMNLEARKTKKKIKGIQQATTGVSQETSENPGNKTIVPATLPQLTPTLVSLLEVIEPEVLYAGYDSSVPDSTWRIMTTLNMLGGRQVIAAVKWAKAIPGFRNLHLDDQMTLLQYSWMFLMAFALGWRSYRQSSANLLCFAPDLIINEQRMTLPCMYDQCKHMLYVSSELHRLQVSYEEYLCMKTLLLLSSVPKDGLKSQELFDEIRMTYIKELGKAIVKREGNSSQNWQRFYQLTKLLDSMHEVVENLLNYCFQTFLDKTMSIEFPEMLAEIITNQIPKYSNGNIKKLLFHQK
In data set [10] the target is Muscarinic M1 (Homo sapiens, UniProt P11229). The experiment in a line: Eurofins radioligand binding.
Sequence of Muscarinic M1 (P11229 whole entry): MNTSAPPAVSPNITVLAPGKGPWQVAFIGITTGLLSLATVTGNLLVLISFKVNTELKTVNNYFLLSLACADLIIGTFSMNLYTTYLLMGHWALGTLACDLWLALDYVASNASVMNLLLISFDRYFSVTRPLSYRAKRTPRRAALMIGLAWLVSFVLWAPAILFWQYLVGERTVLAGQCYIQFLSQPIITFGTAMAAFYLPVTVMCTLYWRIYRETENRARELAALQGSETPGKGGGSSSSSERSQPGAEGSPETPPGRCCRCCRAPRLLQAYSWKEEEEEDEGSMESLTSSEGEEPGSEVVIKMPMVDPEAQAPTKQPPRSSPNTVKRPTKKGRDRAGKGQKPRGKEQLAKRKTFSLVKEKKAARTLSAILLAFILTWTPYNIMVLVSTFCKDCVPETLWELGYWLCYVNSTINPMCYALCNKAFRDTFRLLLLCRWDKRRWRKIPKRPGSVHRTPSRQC

Sequence of Sigma σ1 (Q99720 whole entry): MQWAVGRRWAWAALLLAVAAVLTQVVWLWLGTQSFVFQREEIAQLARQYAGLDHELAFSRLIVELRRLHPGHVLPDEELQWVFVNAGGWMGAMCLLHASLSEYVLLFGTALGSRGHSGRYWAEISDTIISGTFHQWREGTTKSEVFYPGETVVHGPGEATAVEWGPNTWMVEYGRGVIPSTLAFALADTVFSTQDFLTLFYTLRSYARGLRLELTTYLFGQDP
Sequence of Dopamine D4.2 (P21917 with tags, fused parts or gaps DEL265-296): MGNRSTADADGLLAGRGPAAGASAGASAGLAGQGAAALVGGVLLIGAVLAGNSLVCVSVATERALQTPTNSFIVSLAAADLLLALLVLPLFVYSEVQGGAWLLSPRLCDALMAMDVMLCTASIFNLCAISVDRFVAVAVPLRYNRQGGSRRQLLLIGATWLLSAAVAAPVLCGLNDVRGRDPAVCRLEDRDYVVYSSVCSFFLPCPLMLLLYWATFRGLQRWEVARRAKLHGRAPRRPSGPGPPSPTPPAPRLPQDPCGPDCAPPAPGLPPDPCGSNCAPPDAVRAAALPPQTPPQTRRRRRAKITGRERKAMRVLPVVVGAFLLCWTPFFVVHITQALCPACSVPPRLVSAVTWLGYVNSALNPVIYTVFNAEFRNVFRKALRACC
Sequence of Transporter, Norepinephrine (NET) (P23975 whole entry): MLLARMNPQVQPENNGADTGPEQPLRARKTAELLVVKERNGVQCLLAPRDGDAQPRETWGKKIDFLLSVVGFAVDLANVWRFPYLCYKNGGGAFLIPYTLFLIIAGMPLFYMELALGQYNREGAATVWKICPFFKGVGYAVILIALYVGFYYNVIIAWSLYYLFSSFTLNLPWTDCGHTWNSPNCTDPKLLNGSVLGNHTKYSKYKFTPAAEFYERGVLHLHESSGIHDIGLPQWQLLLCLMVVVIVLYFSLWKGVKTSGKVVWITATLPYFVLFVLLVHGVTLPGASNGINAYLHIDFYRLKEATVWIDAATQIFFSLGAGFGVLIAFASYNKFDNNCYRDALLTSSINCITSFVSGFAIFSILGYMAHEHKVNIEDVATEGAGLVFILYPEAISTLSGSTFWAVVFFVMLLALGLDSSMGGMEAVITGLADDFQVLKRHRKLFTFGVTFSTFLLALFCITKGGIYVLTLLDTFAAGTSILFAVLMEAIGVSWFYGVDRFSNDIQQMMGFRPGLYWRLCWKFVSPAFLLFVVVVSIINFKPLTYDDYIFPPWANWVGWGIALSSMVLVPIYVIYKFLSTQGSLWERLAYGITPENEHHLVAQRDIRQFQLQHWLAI

Turning to `Cn1cc2c(-c3cc(F)c(CN4Cc5ncccc5C4=O)c(F)c3)ccc(C(C)(C)O)c2n1` [compound 7], the inhibition at 10 µM was 1% in data set [1]; -5% in data set [3]; 21% in data set [7]; 6% in data set [8]; 9% in data set [9]; 18% in data set [10]. Besides, in data set [2], the “% Inhibition at 10 µM” value was 64%. Also, the “F (%) po” value in [4] (3 mg/kg po) is reported as 65%. In addition, the clearance in data set [4] (plasma, 1 mg/kg iv, read-out: CLp) came out at 8.4 mL/min/kg. Also, the half-life in data set [4] (plasma, 1 mg/kg iv, read-out: Elimination t1/2 (converted)) is 4.1 h. The Vd in [4] (plasma, 1 mg/kg iv, read-out: Vss) was 2.3 L/kg. In data set [4] (plasma, 3 mg/kg po), this compound displayed an AUC of 9 µM·h. In data set [4] (plasma, 3 mg/kg po), this compound yielded a maximum concentration (Cmax) of 700 nM. Further, the time of peak concentration (Tmax) in data set [4] (plasma, 3 mg/kg po) was 1.33 h. The fraction unbound at 6 h, 5 µM in data set [5] was determined as 0.06. The “AEs in seizure liability assay” value in data set [6] (56.6 mg/kg IP, mice, result in words) is on record as “negligible AEs”. The Racine scale scores result in data set [6] (100 mg/kg IP, mice) is reported as “less than 2”. The “AEs in Racine score test” value in data set [6] (56.6 and 100 mg/kg, i.p., 360 min, male C57Bl/6 mice, result in words) was “minimal AEs at 60 min postadministration with a lack of AEs observed at 6 h”.

For the origin of these results see PMC12715762, “Discovery of VU6052254: A Novel, Potent M1 Positive Allosteric Modulator” (ACS Chemical Neuroscience, 2025).
